Like-named read-outs stand apart in the source and are kept apart here.
Tests used:
PDE10A = target: T1, PDE10A (Homo sapiens, UniProt Q9Y233); test: Activity of inhibiting PDE10A activity ([3H]cAMP decomposition inhibiting test); type: biochemical; conditions: for inhibition at 1 µM: read-out: [3H] cAMP decomposition inhibition rate (%); for IC50: read-out: IC50 (concentration at which to inhibit [3H]cAMP decomposition by 50%)
T1 construct: made in house; host or cells: Sf9 insect cells (baculovirus, pVL1393)
Protocol: Activity of Inhibiting PDE10A Activity (^3H]cAMP Decomposition Inhibiting Test)
PCR was performed using DNAs having base sequences described in SEQ ID NO. 1 and SEQ ID NO. 2 as primers and human kidney cDNA as a template to prepare a plasmid containing amplified fragments. The plasmid was cleaved with restriction endonucleases Pst I and Xba I to obtain a Pst I-Xba I fragment of 0.7 kb.
Meanwhile, Est clone (Cosmo Bio, Tokyo) of GenBank, ACCESSION WO 4835 was cleaved with restriction endonucleases Kpn I and Pst I to obtain a Kpn I-Pst I fragment of 1.5 kb.
The resulting Pst I-Xba I fragment of 0.7 kb and Kpn I-Pst I fragment of 1.5 kb were subcloned in a Kpn I-Xba I site of pBluescript II KS(−) (STRATAGENE, La Jolla, Calif., USA),to construct a plasmid having a cDNA fragment completely including a catalyst region of PDE10A. Subsequently, the plasmid was cleaved with restriction endonucleases Kpn I and Not I to obtain a Kpn I-Not I fragment of 2.2 kb.
The resulting Kpn I-Not I fragment of 2.2 kb and a linker having a BamH I-Kpn I cleavage surface prepared by synthetic DNA having base sequences described in SEQ ID NOS. 3 and 4 were subcloned in a BamH I-Not I site of pVL1393 (PharMingen, San Diego, Calif., USA) to obtain a plasmid for preparation of Baculovirus. The plasmid contains a DNA encoding a peptide in which methionine, FLAG tag and a peptide having a 64th to 779th amino acid sequence of PDE10A [GenBank, ACCESSION NP 006652: Gene, vol. 234, p. 109 (1999), J. Biol. Chem., vol. 274, p. 18438 (1999)] are bound in the order.
The above gene recombinational manipulation was performed according to the method described in Molecular Cloning, 2nd edition, Cold Spring Harbor Laboratory Press, New York (1989).
The expression of PDE10A was conducted according to the Baculovirus expression vector system manual (PharMingen) using insect cells. As insect cells, Sf9 cells (Asahi Technoglass, Tokyo) were used. Sf9 cells were infected with a supernatant (co-transfection sup) containing PDE10A expression virus prepared according to the manual, and cultured at 27° C. for 4 days. The cells were recovered, washed with a phosphate-buffered saline (PBS), and then suspended in an extraction solution [20 mmol/L Tris-acetate (pH 7.5), 2 mmol/L MgCl2, 1 mmol/L dithiothreitol, 1 mmol/L ethylenediaminetetraacetic acid (EDTA), 0.25 mol/L sucrose, 250 unit/mL aprotinin, 40 μg/mL phenylmethylsulfonyl fluoride, and 1 μg/mL pepstatin A]. The cells were disrupted in ice with the maximum output under conditions of 5 seconds and five times using an ultrasonic disruption machine (TOMY model UR-200R, TOMY, Tokyo). A soluble fraction was obtained by centrifugation under 10,000 rpm of the fraction at 4° C. for 30 minutes, and the resulting soluble fraction was used for measuring the PDE activity.
The PDE activity was measured according to the method described in Methods Enzymol., vol. 159, p. 457 (1988).
Using [^3H]cAMP as a substrate, an enzyme reaction was conducted in a reaction solution containing 300 μL of 50 mmol/L N,N-bis (2-hydroxyethyl)-2-aminoethanesulfonic acid (pH 7.2), 1 mmol/L MgCl2 and 0.1 mmol/L ethylene glycol-bis (β-aminoethyl ether)-N,N,N′,N′-tetraacetic acid: EGTA). The concentration of the substrate was 0.2 μmol/L. To 95 μL of an enzyme dilute solution were added 5 μL of a test compound (DMSO solution) and 200 μL of a substrate solution. The mixture was incubated at 30° C. for 20 minutes, and then HCl was added to stop the reaction. The reaction product (5′-AMP) was converted to adenosine using 5′-nucleotidase, and separated the unreacted product from the reactant by DEAE-Sephadex A-25 column (Amersham Pharmacia Biotech, Uppsala, Sweden). The elute was moved to scintillation vials, 6 mL of Ultima Gold (Packard Instrument, Meriden, Conn., USA) was added, and the radioactivity was measured for 2 minutes using a liquid scintillation counter (Beckman LS6500, Beckman, Tokyo),. […]

[1] = Test compound concentration 1 μmol/L, substrate [3H]cAMP 0.2 μmol/L

T1 sequence (Q9Y233 340-1055): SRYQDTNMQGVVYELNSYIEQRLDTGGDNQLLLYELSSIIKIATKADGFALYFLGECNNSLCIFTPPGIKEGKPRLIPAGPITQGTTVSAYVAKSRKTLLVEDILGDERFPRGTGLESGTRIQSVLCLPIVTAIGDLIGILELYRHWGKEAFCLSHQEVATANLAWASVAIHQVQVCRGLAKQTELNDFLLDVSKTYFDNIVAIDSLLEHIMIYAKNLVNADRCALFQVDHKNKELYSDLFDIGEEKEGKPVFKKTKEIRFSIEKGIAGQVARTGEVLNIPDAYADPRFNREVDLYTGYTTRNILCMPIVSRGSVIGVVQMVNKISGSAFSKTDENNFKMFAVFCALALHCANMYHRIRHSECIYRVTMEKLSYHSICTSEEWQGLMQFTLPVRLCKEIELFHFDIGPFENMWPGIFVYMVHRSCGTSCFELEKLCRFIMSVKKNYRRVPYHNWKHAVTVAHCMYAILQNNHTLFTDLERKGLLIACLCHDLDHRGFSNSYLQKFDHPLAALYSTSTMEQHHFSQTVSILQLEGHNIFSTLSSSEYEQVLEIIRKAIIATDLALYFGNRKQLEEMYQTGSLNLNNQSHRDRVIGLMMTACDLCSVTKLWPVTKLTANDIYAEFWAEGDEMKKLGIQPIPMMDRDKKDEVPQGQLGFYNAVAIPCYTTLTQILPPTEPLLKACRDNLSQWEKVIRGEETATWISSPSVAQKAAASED

Row | melting point | inhibition at 1 µM (PDE10A; [1]) [%] | IC50 (PDE10A; substrate [3H]cAMP 0.2 μmol/L) [nM] | Structure (SMILES) | inhibition at 1 µM (PDE10A) [%]
1 | 222 to 224 °C | 99 | 13 | Cc1c(-c2ccc(-c3ccccc3CNc3ccccc3)cc2)nc2ccc(F)cc2c1C(=O)O [Compound N, 6-Fluoro-3-methyl-2-[(2′-phenylamino)methylbiphenyl-4-yl]quinoline-4-carboxylic acid] | –
2 | 283 to 295 °C | 99 | 11 | COc1ccccc1-c1ccc(-c2nc3ccc(F)cc3c(C(=O)O)c2C)cc1 [D, 6-Fluoro-2-(2′-methoxybiphenyl-4-yl)-3-methylquinoline-4-carboxylic acid] | –
3 | 260 °C (dec.) | 97 | 47 | Cc1ccccc1-c1ccc(-c2nc3ccc(F)cc3c(C(=O)O)c2C)cc1 [H, 6-Fluoro-3-methyl-2-(2′-methylbiphenyl-4-yl)quinoline-4-carboxylic acid] | –
4 | 258 to 260 °C | 90 | – | Cc1c(-c2ccc(-c3ccccc3CO)cc2)nc2ccc(F)cc2c1C(=O)O [K, 6-Fluoro-2-(2′-hydroxymethylbiphenyl-4-yl)-3-methylquinoline-4-carboxylic acid] | –
5 | 189 to 190 °C | 99 | 21 | Cc1c(-c2ccc(-c3ccccc3CN3CCN(c4ccccc4)CC3)cc2)nc2ccc(F)cc2c1C(=O)O [L, 6-Fluoro-3-methyl-2-[21-(4-phenylpiperazin-1-yl)methylbiphenyl-4-yl]quinoline-4-carboxylic acid] | –
6 | 163 to 165 °C | 98 | 27 | Cc1c(-c2ccc(-c3ccccc3CN3CCOCC3)cc2)nc2ccc(F)cc2c1C(=O)O [M, 6-Fluoro-3-methyl-2-(2′-morpholinomethylbiphenyl-4-yl)quinoline-4-carboxylic acid] | –

Row | Structure (SMILES) | melting point | inhibition at 1 µM (PDE10A; [1]) [%] | IC50 (PDE10A; substrate [3H]cAMP 0.2 μmol/L) [nM] | inhibition at 1 µM (PDE10A) [%]
7 | Cc1c(-c2ccc(-c3ccccc3-c3ccccc3)cc2)nc2ccc(F)cc2c1C(N)=O [O, 6-Fluoro-3-methyl-2-([1,1′:2′,1″-terphenyl]-4-yl)quinone-4-carboxamide] | 243 to 246 °C | – | 33 | 94
